Data on four compounds can be found in patent publication US20050282781A1, “Compositions of stable bioactive metabolites of docosahexaenoic (DHA) and eicosapentaenoic (EPA) acids” (priority 2004, published 2005).

Test [1] deals with pylorus ligated albino rats. In words: Anti-ulcerogenic effect in pylorus ligated rats (ulcer index, gastric juice). The format is in vivo. The source says: Mixture of DBPs (1:1, 1 and 2, Scheme-II), on'the other hand, increased the contents of individual and the total carbohydrates and also the total carbohydrate/protein ratio in the gastric juice. The ratio of the total carbohydrate/protein was taken as the index of the mucin activity.
Another essential criterion of determining the status of mucosal resistance/barrier is the state of mucus secretion. DBPs increase not only the mucosal cellular mucus, but also secrete more dissolved mucus in the gastric juice as evidenced by their effects on gastric juice carbohydrates and on the increased carbohydrate/protein ratio.

In a further test the test system is active learning in rats. In words: Active learning (learning acquisition), number of trials to reach criterion. The class given is in vivo, rat. The following applies: p.o. once daily 45 min before trial for 4 days, mean ± SEM. The source says: In the learning acquisition paradigm, in the control group, the number of shocked and unshocked trials required to reach the criterion of 10 correct conditional responses, were 14.33 and 43.70, respectively.

For test [2], the system named is CS-induced gastric ulceration in albino rats. In words: Chronic stress (foot-shock) induced gastric ulceration. The class given is in vivo. How it is done: A comparative study of DBPs (1, 2, Scheme-II; 1:1 mixture), EPA and DHA was carried out to determine their relative adaptogenic potency against chronic stress in albino rats. The study is also relevant in view of the projected links of EPA and DHA to mental development in children which is severely retarded by chronic stress.
Rats were randomly assigned to control or stress groups. Those assigned to the stress groups were subjected to 1 hour foot-shock, through a grid floor, every day for 14 days. The duration of each shock (2 mA) and the intervals between the shocks were randomly programmed between 3-5 seconds and 10-110 seconds, respectively, to make the stress unpredictable.
EPA (Aldrich), DHA (Sigma) and DBPs were separately suspended/dissolved in 0.3% carboxymethylcellulose (CMC) in distilled water and administered orally (p.o.) for 14 days, starting on day 1, 60 min. prior to electro-shock. Control animals received only the vehicle in either unstressed or the stressed rats for the same period in a volume of 2 ml/Kg, p.o. Estimations were conducted on day 14, one hour after the last stress procedure and two hours after the last test compound or vehicle was administered.
The three test compounds had, albeit in different extent, dose-related anti-ulcerogenic effect. The efficacy was in the order: DBPs>DHA>EPA (Table 2).

Test [3] relates to CS-induced alteration of adrenal gland ascorbic acid and corticosterone concentrations and plasma corticosterone level. In words: Chronic stress induced alteration of adrenal ascorbic acid, adrenal corticosterone and plasma corticosterone. The format is in vivo, albino rats. How it is done:
The study is also relevant in view of the projected links of EPA and DHA to mental development in children which is severely retarded by chronic stress. Rats were randomly assigned to control or stress groups. Those assigned to the stress groups were subjected to 1 hour foot-shock, through a grid floor, every day for 14 days. […] Control animals received only the vehicle in either unstressed or the stressed rats for the same period in a volume of 2 ml/Kg, p.o. […] CS caused marked depletion of adrenal gland ascorbic acid and corticosterone concentrations with concomitant increase in plasma corticosterone levels. […] They had no per se effect on the indices of stress investigated (Table 3).

The test system of another test is open-field test in rats. In words: Open-field test (anxiogenic test model). Set-up: Immobility: unit not given here. The class given is in vivo, rat. The protocol: This was determined according to a previously described method (Bhattacharya et al. 1998).
MDMA (5 and 10 mg/Kg, i.p.) produced a dose-related decrease in the number of squares crossed and rears, with concomitant immobility and increased defecation; these effects are qualitatively similar to those induced by yohimbine (2 mg/Kg, i.p. in 0.9% saline as the vehicle). DBPs (1 and 2, 1:1 mixture 10 mg/Kg, p.o. day-1, for 7 days) were administered prior to MDMA or yohimbine administration, on the 7th day, 1 hour after the last DBPs administration (p.o.). Similar anti-anxiogenic effects were observed on pretreatment of MDMA, followed by DBPs.

Setting [4] is: 5 mg/Kg p.o. for 14 days + chronic stress.
The mark [5] stands for this setting: 10 mg/Kg p.o. for 14 days + chronic stress.
Setting [6] is: 5 mg/Kg p.o., unstressed rats (per se effect).
Setting [7] is: 10 mg/Kg p.o., unstressed rats (per se effect).
The mark [8] stands for this setting: 10 mg/Kg p.o. for 7 days, prior to MDMA or yohimbine administration.

Marks after values point to notes of the source that are not given here.

On to `CC(=O)Oc1ccccc1C(=O)O` [ASP, aspirin], for which the “protein content in the gastric juice” value in test [1] (compared to the vehicle control) was “significant increase”. Besides, in test [1] (pylorus ligated rats), the “contents of DNA and protein in the gastric juice” value was “appreciable increase”; the “total carbohydrate/protein ratio in the gastric juice (index of mucin activity)” value was “considerable decrease”.

Turning to `CC/C=C\C/C=C\C/C=C\C/C=C\C/C=C\C/C=C\CCC(=O)O` [DHA, docosahexaenoic acid], in the test on active learning in rats (dose 2.5 mg/ml), the “Number of trials to reach criterion, Shocked trials” value was 12.55 ± 2.03 and the “Number of trials to reach criterion, Unshocked trials” value came to 39.33 ± 2.04. The “Number of trials to reach criterion, Shocked trials” value in the test with active learning in rats (dose 5.0 mg/ml) is 12.78 ± 1.83. In test [2] (setting [4]), the No. of ulcers is 15.8 ± 4.0, the Severity of ulcers was found to be 28.1 ± 5.9 and the “Ulcer incidence (%)” value worked out at 70%. Moreover, in test [2] (setting [5]), the No. of ulcers was found to be 14.7 ± 3.8, the Severity of ulcers is listed as 25.0 ± 5.2 and the “Ulcer incidence (%)” value was 60%. In addition, in test [3] (setting [4]), the Adrenal ascorbic acid was 140.7 ± 20.5 μg/100 mg, the Adrenal corticosterone turned out to be 2.5 ± 1.0 μg/100 mg and the Plasma corticosterone was 22.5 ± 3.5^b μg/dL. For the same compound, in test [3] (setting [6]), the Adrenal ascorbic acid is 309.4 ± 30.4 μg/100 mg, the Adrenal corticosterone is recorded as 4.8 ± 1.2 μg/100 mg and the Plasma corticosterone stood at 15.0 ± 0.9 µg/dL. Besides, in test [3] (setting [5]), the Adrenal ascorbic acid is on record as 148.0 ± 16.7^b μg/100 mg, the Adrenal corticosterone is reported as 2.8 ± 1.0^b μg/100 mg and the Plasma corticosterone is 17.9 ± 0.9^b μg/dL. For the same compound, in test [3] (setting [7]), the Adrenal ascorbic acid turned out to be 308.9 ± 27.4 μg/100 mg, the Adrenal corticosterone is given as 5.5 ± 1.0 μg/100 mg and the Plasma corticosterone was determined as 14.7 ± 1.0 µg/dL. Besides, in the test with open-field test in rats (setting [8]), the Faecal pellets is recorded as 5.7 ± 4.1, the Immobility is recorded as 59.9 ± 7.2, the Rears is given as 14.0 ± 5.5 and the Squares crossed is 122.1 ± 5.5.

In the test on open-field test in rats (5 mg/Kg, i.p.), `CNC(C)Cc1ccc2c(c1)OCO2` (stereo not shown) [MDMA, Methylenedioxymethylamphetamine] yielded a Faecal pellets of 6.7 ± 0.5, an Immobility of 69.3 ± 6.1, a Rears of 14.3 ± 4.2 and a Squares crossed of 111.2 ± 8.0. In the test on open-field test in rats (10 mg/Kg, i.p.), the Faecal pellets worked out at 8.0 ± 2.2, the Immobility was 80.1 ± 7.0, the Rears is 11.2 ± 3.9 and the Squares crossed was 74.7 ± 5.5.

For `COC(=O)[C@@H]1[C@H]2C[C@H]3c4[nH]c5ccccc5c4CCN3C[C@@H]2CC[C@@H]1O` [Yohimbine, yohimbine], in the test on open-field test in rats (2 mg/Kg, i.p. in 0.9% saline), the Faecal pellets came out at 7.5 ± 1.2, the Immobility stood at 70.2 ± 4.9, the Rears amounted to 12.8 ± 4.4 and the Squares crossed is 90.8 ± 7.4.
